In PMC12291762 (Antioxidants, 2025):

Legend:
COX-1 = target: T1, COX-1 (Ovis aries, UniProt P05979); test: Fluorometric COX-1 inhibitor screening kit; assay type: biochemical; design: purchased Abcam ab204698; settings: mean ± standard error, three independent measurements
T1 sequence (P05979 25-600): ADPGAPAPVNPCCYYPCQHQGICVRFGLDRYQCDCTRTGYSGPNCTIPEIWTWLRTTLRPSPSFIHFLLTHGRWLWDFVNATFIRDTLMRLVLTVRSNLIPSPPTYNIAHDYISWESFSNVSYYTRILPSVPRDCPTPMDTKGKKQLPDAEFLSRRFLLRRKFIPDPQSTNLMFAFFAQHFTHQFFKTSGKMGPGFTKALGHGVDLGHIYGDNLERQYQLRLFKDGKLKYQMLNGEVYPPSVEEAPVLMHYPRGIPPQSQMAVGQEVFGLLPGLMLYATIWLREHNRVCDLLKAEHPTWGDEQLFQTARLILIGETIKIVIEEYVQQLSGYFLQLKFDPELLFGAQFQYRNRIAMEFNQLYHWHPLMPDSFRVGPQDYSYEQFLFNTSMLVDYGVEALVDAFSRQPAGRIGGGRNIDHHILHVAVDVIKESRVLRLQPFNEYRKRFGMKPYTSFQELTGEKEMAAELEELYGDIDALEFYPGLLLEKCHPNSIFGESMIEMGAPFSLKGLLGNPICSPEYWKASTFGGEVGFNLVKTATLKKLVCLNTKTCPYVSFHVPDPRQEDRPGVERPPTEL
Method: The inhibitory activity of the tested compounds against COX-1 and COX-2 isoforms was assessed using fluorometric cyclooxygenase inhibitor screening kits (Catalog Numbers ab204698 and ab283401, respectively; Abcam, Cambridge, UK). These assays detect the formation of prostaglandin G2, a product of COX enzymatic activity, via fluorometric measurement.
Stock solutions of the test compounds were prepared at a concentration of 5 mM in DMSO and subsequently diluted with the same solvent to obtain the test solutions. For the assay preparation, 2 μL of each test solution was diluted with 8 μL of COX assay buffer. The solvent control (SC) consisted of 2 μL of DMSO and 8 μL of assay buffer, while the enzyme control (EC) contained 10 μL of assay buffer alone. Sample wells (S) received 10 μL of the diluted test solutions. All other steps were in accordance with the manufacturer’s protocol and the previously published article. […] The percentage of inhibition was calculated as follows:(3) % Relative Inhibition=Slope of EC−Slope of S/Slope of EC×100
Fluorescence measurements were conducted on a BioTek Synergy LX multi-mode reader (Winooski, VT, USA).

[1] = test system: local oxidative stress parameters; test: Local redox state (edema-affected paw tissue homogenate) 24 h after carrageenan; assay type: in vivo, Wistar albino rats; settings: inflamed paw tissue; for Local nitrites level (reduction, p < 0.05): comparator not given
Method: Following 24 h of carrageenan-induced paw edema inflammation model and intraperitoneal anesthesia induced by ketamine/xylazine (100/10 mg/kg of BW), the animals were sacrificed, while whole-blood samples and edema-affected paw tissues were isolated. After centrifugation of whole blood, plasma and erythrocyte lysate samples were separated for further examination of the applied compounds’ effects on the systemic redox balance state. Pro-oxidative markers including superoxide anion radical (O2∙^−), hydrogen peroxide (H2O2) nitrites (NO2^−), and index of lipid peroxidation measured as thiobarbituric acid (TBA) reactive substances (TBARS) were determined from plasma samples, while the antioxidant capacity, including superoxide dismutase (SOD) and catalase (CAT) activity, as well as the reduced glutathione (GSH) level were examined in erythrocyte lysate samples [46]. […] Edema-affected paw tissue samples were weighed (100 mg) and homogenized (OmniPrep™ multi-sample homogenizer, Omni International, Kennesaw, GA, USA) in 900 µL phosphate buffer on ice (pH = 7.4), and centrifuged at 12,000 rpm for 20 min. These supernatant samples were used for the determination of the aforementioned pro-oxidative and antioxidative parameters levels. All oxidative stress analyses were performed spectrophotometrically using a Shimadzu UV 1800 spectrophotometer (Kyoto, Japan).
Determination of the O2∙^− level was conducted by adding 950 µL of a Nitro Blue Tetrazolium (NBT) mixture with TRIS buffer in 50 µL of sample, measured at the 550 nm wavelength. The level of H2O2 was determined during the oxidation of phenol red by H2O2, which was catalyzed with horseradish peroxidase and measured at the 610 nm wavelength. Indirect measurement of nitrites was performed by the precipitation of samples with 30% sulfo-salicylic acid, followed by vortexing and centrifugation at 3000 rpm for 15 min. The equal volumes of isolated supernatant and Griess’ reagent (containing 1% sulfanilamide in 5% phosphoric acid/0.1% naphthalene ethylenediamine-dihydrochloride) were incubated for 10 min and measured at the 550 nm wavelength. The TBARS concentration was determined by adding 400 µL of sample to 200 µL of TBA in 0.05 M NaOH, followed by 15 min incubation at 100 °C. Measurement was performed at the 530 nm wavelength.
The epinephrine method was used for SOD determination. By adding 100 µL of sample, the same volume of epinephrine, and 1000 µL of carbonate buffer, the measurement was performed at the 470 nm wavelength. The determination of CAT activity was based on the preparation of a mixture containing 100 µL of sample, 50 µL of catalase buffer, and 1000 µL of 10 mM H2O2, which was measured at the 230 nm wavelength.

Row | Structure (SMILES) | IC50 (COX-1) [µM] | Local SOD activity compared to Dex rats [1] | Local SOD activity compared to untreated (negative control) rats [1] | Local TBARS level compared to Dex group [1] | Local TBARS level compared to Sol rats [1] | Local nitrites level (reduction, p < 0.05) [1]
1 | C[C@H](C(=O)NCCCC(=O)O)c1cccc(C(=O)c2ccccc2)c1 [Compound 5, (S)-4-(2-(3-benzoylphenyl)propanamido)butanoic acid] | > 100 |  |  |  |  | markedly reduced
2 | C[C@H](C(=O)N[C@@H](Cc1ccccc1)C(=O)O)c1cccc(C(=O)c2ccccc2)c1 [Compound 3, ((S)-2-(3-benzoylphenyl)propanoyl)-L-phenylalanine] | > 100 |  |  |  |  | 

Second part, led by results:

Row | IC50 (COX-1) [µM] | Structure (SMILES) | Local SOD activity compared to Dex rats [1] | Local SOD activity compared to untreated (negative control) rats [1] | Local TBARS level compared to Dex group [1] | Local TBARS level compared to Sol rats [1] | Local nitrites level (reduction, p < 0.05) [1]
3 | > 100 | C[C@H](C(=O)N[C@@H](Cc1c[nH]c2ccccc12)C(=O)O)c1cccc(C(=O)c2ccccc2)c1 [Compound 4, ((S)-2-(3-benzoylphenyl)propanoyl)-L-tryptophan] |  |  |  |  | 
4 | > 100 | C[C@H](NC(=O)[C@@H](C)c1cccc(C(=O)c2ccccc2)c1)C(=O)O [Compound 2, ((S)-2-(3-benzoylphenyl)propanoyl)-L-alanine] | increase the SOD activity | increase the SOD activity | no statistical differences | reduce the TBARS level | markedly reduced
5 | > 100 | C[C@H](C(=O)NCC(=O)O)c1cccc(C(=O)c2ccccc2)c1 [Compound 1, (S)-(2-(3-benzoylphenyl)propanoyl)glycine] |  |  |  |  | 
